For nine molecules, EC50 results are on record in patent publication US20070213301A1 (ACHILLION PHARMACEUTICALS, INC., priority 2006, published 2007).

The experiment deals with HCV replicon. The experiment is described as follows: HCV replicon replication assay (NPTII ELISA). It counts as cell-based, Hepatitis C virus (Huh-7 cells). The following applies: Hepatitis C virus, Huh-7, 72 h, inhibition of HCV replicon replication in Huh-7 HCV replicon-containing cells, three days incubation, NPT level by ELISA; read-out: EC50. The procedure, abridged:
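Huh-7 cells carrying a Bartenschlager NPTII (neo) HCV replicon, treated 3 days at 37 °C with compound, generally 6 concentrations from 10 to 0.03 micromolar, in equal DMSO across wells. NPTII level, proportional to replication, read by capture ELISA on methanol:acetone-fixed cells; interferon alpha positive control; toxicity scored visually or by MTS.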
In general, EC50 refers to the concentration that produces a half-maximal response. Regarding `CCCCCCCCc1ccc(N(C(=O)OCOC(=O)C(N)C(C)C)c2nc(-c3cccnc3)c(F)s2)cc1C(F)(F)F` (stereo not drawn) [Compound 186, ((5-fluoro-4-(pyridin-3-yl)thiazol-2-yl)(4-octyl-3-(trifluoromethyl)phenyl)carbamoyloxy) methyl 2-amino-3-methylbutanoate], the EC50 was less than 1000 nM.
Under `CCCCCCCCc1ccc(N(C(=O)OCOP(=O)(O)O)c2nc(-c3cccnc3)c(F)s2)cc1C(F)(F)F` [Compound 187, phosphonooxymethyl 5-fluoro-4-(pyridin-3-yl)thiazol-2-yl(4-octyl-3-(trifluoromethyl)phenyl)carbamate] stands less than 1000 nM; under `CC/C=N/N(c1ccc(OCCCCCCCC)cc1)c1nc(-c2cccnc2)cs1` [Compound 188, (E)-2-(1-(4-(octyloxy)phenyl)-2-propylidenehydrazinyl)-4-(pyridin-3-yl)thiazolo], less than 1000 nM.
For the molecule `C/C=N/N(c1ccc(OCCCCCCCC)c(C(F)(F)F)c1)c1nc(-c2cccnc2)cs1` [Compound 189, (E)-2-(2-ethylidene-1-(4-(octyloxy)-3-(trifluoromethyl)phenyl)hydrazinyl)-4-(pyridin-3-yl)thiazolo], the EC50 was less than 1000 nM.
Next, `C/C=N/N(c1ccc(OCCCCCCCC)cc1)c1nc(-c2cccnc2)cs1` [Compound 190, (E)-2-(2-ethylidene-1-(4-(octyloxy)phenyl)hydrazinyl)-4-(pyridin-3-yl)thiazolo]: less than 1000 nM; `C/C=N/N(c1ccc(OCCCCCCCC)c(C(F)(F)F)c1)c1nc(-c2cccnc2)c(F)s1` [Compound 191, (E)-2-(2-ethylidene-1-(4-(octyloxy)-3-(trifluoromethyl)phenyl)hydrazinyl)-5-fluoro-4-(pyridin-3-yl)thiazolo]: 1000 to 10000 nM; `CCCCCCCCOc1ccc(N(COC(=O)C(C)(C)C)c2nc(-c3cccnc3)c(F)s2)cc1C(F)(F)F` [Compound 192, ((5-fluoro-4-(pyridin-3-yl)thiazol-2-yl)(4-(octyloxy)-3-(trifluoromethyl)phenyl)amino)methyl pivalate]: less than 1000 nM.
With `NCCN(c1ccc(OCCCCc2cccs2)c(C(F)(F)F)c1)c1nc(-c2cccnc2)c(F)s1` [Compound 193, N1-(5-fluoro-4-(pyridin-3-yl)thiazol-2-yl)-N1-(4-(4-(thiophen-2-yl)butoxy)-3-(trifluoromethyl)phenyl)ethane-1,2-diamine], the half-maximal effective concentration (EC50) fell in the range of 1000 to 10000 nM.
On to `CCCCCCCCOc1ccc(N(C(C)=O)c2ncc(-c3cccnc3)s2)cc1C(F)(F)F` [Compound 194, N-(4-(octyloxy)-3-(trifluoromethyl)phenyl)-N-(5-(pyridin-3-yl)thiazol-2-yl)acetamide], for which the concentration giving a half-maximal response (EC50) was less than 1000 nM.
